These results are taken from ChEMBL document CHEMBL2375248, “C1 and N5 derivatives of cerpegin: synthesis of a new series based on structure-activity relationships to optimize their inhibitory effect on 20S proteasome” (Bioorg Med Chem Lett, 2013).

Activity calls are given as the source filed them. No cut-off for these calls is given here.

In assay [1] the target is Cathepsin B (Homo sapiens) (UniProt P07858). Put plainly: Inhibition of cathepsin B in human hepatocytes using Z-RR-AMC as substrate by fluorescence assay. It is filed as cell-based. Conditions: Hepatocyte.
Assay [2] is described as follows: Inhibition of caspase-like activity of 20S proteasome in rabbit erythrocytes using Z-LLE-betaNA as substrate preincubated for 15 mins measured after 45 mins by fluorescence assay. It is filed as cell-based, Oryctolagus cuniculus.
Assay [3] in a line: Inhibition of trypsin-like activity of 20S proteasome in rabbit erythrocytes using Boc-LRR-AMC as substrate preincubated for 15 mins measured after 45 mins by fluorescence assay. It is filed as cell-based, Oryctolagus cuniculus.
Assay [4] can be described thus: Inhibition of chymotrypsin-like activity of 20S proteasome in rabbit erythrocytes using Suc-LLVY-AMC as substrate preincubated for 15 mins measured after 45 mins by fluorescence assay. It is filed as cell-based, Oryctolagus cuniculus.
Assay [5] concerns the target T1, Calpain-1 catalytic subunit (Homo sapiens, UniProt P07384).
T1 sequence (P07384 whole entry): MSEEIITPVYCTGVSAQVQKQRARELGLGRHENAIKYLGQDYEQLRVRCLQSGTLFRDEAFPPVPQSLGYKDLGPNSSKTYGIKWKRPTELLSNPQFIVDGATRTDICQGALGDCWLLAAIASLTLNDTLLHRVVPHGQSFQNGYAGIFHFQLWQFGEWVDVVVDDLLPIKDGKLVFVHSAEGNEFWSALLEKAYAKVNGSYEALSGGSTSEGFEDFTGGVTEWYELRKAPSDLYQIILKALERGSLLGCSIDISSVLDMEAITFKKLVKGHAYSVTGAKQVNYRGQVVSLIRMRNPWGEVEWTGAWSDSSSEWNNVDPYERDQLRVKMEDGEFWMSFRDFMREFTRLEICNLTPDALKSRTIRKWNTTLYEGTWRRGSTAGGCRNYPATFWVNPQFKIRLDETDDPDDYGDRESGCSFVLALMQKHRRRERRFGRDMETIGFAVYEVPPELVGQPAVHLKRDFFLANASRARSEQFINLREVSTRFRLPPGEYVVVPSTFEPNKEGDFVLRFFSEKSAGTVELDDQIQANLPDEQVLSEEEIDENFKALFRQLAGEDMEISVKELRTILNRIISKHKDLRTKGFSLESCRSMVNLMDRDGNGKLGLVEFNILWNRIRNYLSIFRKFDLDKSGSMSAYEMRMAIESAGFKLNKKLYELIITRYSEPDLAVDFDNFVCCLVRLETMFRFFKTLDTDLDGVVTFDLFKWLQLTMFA
The experiment in a line: Inhibition of calpain 1 in human erythrocytes using Suc-LLVY-AMC as substrate by fluorescence assay. It is filed as cell-based.

The species named for assay [6] is Oryctolagus cuniculus. The experiment in a line: Inhibition of caspase-like activity of 20S proteasome in rabbit erythrocytes using Z-LLE-betaNA as substrate at 100 uM preincubated for 15 mins measured after 45 mins by fluorescence assay relative to control.
Assay [7] is filed under the species Oryctolagus cuniculus. Put plainly: Inhibition of chymotrypsin-like activity of 20S proteasome in rabbit erythrocytes using Suc-LLVY-AMC as substrate at 100 uM preincubated for 15 mins measured after 45 mins by fluorescence assay relative to control. It is filed as cell-based.

Consider `Cc1cc(-n2ccc3c(c2=O)C(=O)OC32CCCCC2)n(-c2ccccc2)n1`, for which the inhibition result in assay [1] was “inactive”. The IC50 result in assay [2], in assay [3] and in assay [4] was “Not Active” throughout.

For `CC1(Cc2ccccc2)OC(=O)c2c1ccn(CCc1ccc(Cl)cc1)c2=O` (racemic), the IC50 was 29.6 µM in assay [5], 7 µM in assay [2] (read-out: IC50), “Not Active” in assay [3] and 22.5 µM in assay [4] (read-out: IC50). In addition, the inhibition entry in assay [1] was “inactive”.

With `CCN(CC)CC(O)Cn1ccc2c(c1=O)C(=O)OC2(C)c1ccccc1` (mixture of isomers), the inhibition result in assay [1] was “inactive”. Further, the IC50 in assay [2] (read-out: IC50) is 4.4 µM; in assay [3], “Not Active”; in assay [4], “Not Active”.

In the case of `CC1(C)OC(=O)c2c1ccn(-c1ccc(S(=O)(=O)Nc3ccccn3)cc1)c2=O`, the inhibition result in assay [1] is “inactive”. This molecule also gave an inhibition in assay [6] of 64%. The IC50 result in assay [3] and in assay [4] was “Not Active” each time.

Regarding `NS(=O)(=O)c1ccc(-n2ccc3c(c2=O)C(=O)OC32CCCCC2)cc1`, the inhibition entry in assay [1] was “inactive”. The IC50 in assay [2] (read-out: IC50) was 6.6 µM; in assay [3], “Not Active”; in assay [4] it was “Not Active”.

In the case of `CC1(c2ccccc2)OC(=O)c2c1ccn(CCCN1CCOCC1)c2=O` (racemic), in assay [1], the inhibition entry was “inactive”. Besides, the concentration for half-maximal inhibition (IC50) in assay [2] (read-out: IC50) was 56.4 µM; in assay [3] it was “Not Active”; in assay [4] it was “Not Active”.

As for `CC(C)CC1(C)OC(=O)c2c1ccn(-c1ccc(S(N)(=O)=O)cc1)c2=O` (racemic), the inhibition result in assay [1] was “inactive”. The concentration for half-maximal inhibition (IC50) was 4.6 µM in assay [2] (read-out: IC50), “Not Active” in assay [3] and “Not Active” in assay [4].

On to `Cc1noc(NS(=O)(=O)c2ccc(-n3ccc4c(c3=O)C(=O)OC4(C)C)cc2)c1C`, for which the inhibition entry in assay [1] is “inactive”. The molecule further showed an inhibition in assay [6] of 51%. Further, the IC50 entry in assay [3] and in assay [4] was “Not Active” throughout.

Consider `CC1(C)OC(=O)c2c1ccn(-c1ccc(S(=O)(=O)NC(=N)N)cc1)c2=O`, for which the inhibition entry in assay [1] was “inactive”. The IC50 was 5.9 µM in assay [2] (read-out: IC50), “Not Active” in assay [3] and “Not Active” in assay [4].

Turning to `Cn1ccc2c(c1=O)C(=O)OC2(C)c1ccccc1` (racemic), in assay [1], the inhibition result was “inactive”. The IC50 in assay [2] (read-out: IC50) was 36 µM; in assay [3], “Not Active”; in assay [4], “Not Active”.

Regarding `CC1(Cc2ccccc2)OC(=O)c2c1ccn(-c1ccc(S(N)(=O)=O)cc1)c2=O` (racemic), the inhibition entry in assay [1] is “inactive”. The IC50 in assay [2] (read-out: IC50) was 3.6 µM; in assay [3] it was “Not Active”; in assay [4] it was “Not Active”.

On to `CC(C)CC1(C)OC(=O)c2c1ccn(CC(O)c1ccccc1)c2=O` (configuration not stated), for which, in assay [1], the inhibition result is “inactive”. Further, the values for the IC50 in assay [2] (read-out: IC50), in assay [3] and in assay [4] were 4.8 µM, “Not Active” and “Not Active”, respectively.

Regarding `CCN(CC)CC(O)Cn1ccc2c(c1=O)C(=O)OC2(C)CCc1ccccc1` (mixture of isomers), in assay [1], the inhibition result is “inactive”. Further, the values for the IC50 in assay [2] (read-out: IC50), in assay [3] and in assay [4] were 2.5 µM, “Not Active” and “Not Active”, respectively.

On to `O=C1OC2(CCCCC2)c2ccn(CC(O)CN3CCOCC3)c(=O)c21` (configuration not stated), for which, in assay [1], the inhibition entry is “inactive”. Further, in assay [6], the inhibition came out at 30.7%. Further, the IC50 entry in assay [3] and in assay [4] was “Not Active” throughout.

As for `CC(=O)NS(=O)(=O)c1ccc(-n2ccc3c(c2=O)C(=O)OC3(C)C)cc1`, the inhibition entry in assay [1] was “inactive”. Also, the IC50 was 5.7 µM in assay [2] (read-out: IC50), “Not Active” in assay [3] and “Not Active” in assay [4].

`NC(=S)Nn1ccc2c(c1=O)C(=O)OC21CCCCC1`: the inhibition entry in assay [1] was “inactive”. The molecule also came in with an inhibition in assay [7] of 23.8%. The IC50 entry in assay [2] and in assay [3] was “Not Active” in each case.

As to `CC1(C)CC2(CCO1)OC(=O)c1c2ccn(CCCN2CCOCC2)c1=O` (configuration not stated), in assay [1], the inhibition entry was “inactive”. For the same molecule, the IC50 in assay [2] (read-out: IC50) is 54.7 µM; in assay [3], “Not Active”; in assay [4] it was “Not Active”.

With `CCN(CC)CC(O)Cn1ccc2c(c1=O)C(=O)OC21CCCCC1` (configuration not stated), the inhibition result in assay [1] is “inactive”. The IC50 in assay [2] (read-out: IC50) was 6.7 µM; in assay [3], “Not Active”; in assay [4], “Not Active”.

Regarding `CC1(C)OC(=O)c2c1ccn(-c1ccc(S(=O)(=O)Nc3ncccn3)cc1)c2=O`, in assay [1], the inhibition result is “inactive”. The molecule further came in with an inhibition in assay [6] of 51%. Moreover, the IC50 entry in assay [3] and in assay [4] was “Not Active” throughout.

Turning to `CC1(CCc2ccccc2)OC(=O)c2c1ccn(-c1ccc(S(N)(=O)=O)cc1)c2=O` (racemic), in assay [1], the inhibition result was “inactive”. For the same molecule, the values for the IC50 in assay [2] (read-out: IC50), in assay [3] and in assay [4] were 2.8 µM, “Not Active” and “Not Active”, respectively.

Consider `O=C1OC2(CCCCC2)c2ccn(CC(O)CO)c(=O)c21` (configuration not stated), for which the inhibition result in assay [1] is “inactive”. Moreover, the IC50 in assay [2] (read-out: IC50) is 8.1 µM; in assay [3], “Not Active”; in assay [4] it was “Not Active”.

As to `C[C@@]12OC(=O)[C@]1([C@@H](O)[C@@H]1C=CCCC1)NC(=O)[C@@H]2CCCl` [MARIZOMIB], the IC50 in assay [2] (read-out: IC50) is 0.46 µM; in assay [3] (read-out: IC50), 0.021 µM; in assay [4] (read-out: IC50), 0.0026 µM.

For `CC1(C)OC(=O)c2c1ccn(-c1ccc(S(=O)(=O)Nc3ccnn3-c3ccccc3)cc1)c2=O`, in assay [1], the inhibition entry was “inactive”. This molecule also showed an inhibition in assay [6] of 28%. Further, the IC50 entry in assay [3] and in assay [4] was “Not Active” each time.

`CCC1(C)OC(=O)c2c1ccn(-c1ccc(S(N)(=O)=O)cc1)c2=O` (racemic): the inhibition entry in assay [1] was “inactive”. The IC50 in assay [2] (read-out: IC50) is 4.9 µM; in assay [3], “Not Active”; in assay [4] it was “Not Active”.

As for `CC1(C)OC(=O)c2c1ccn(-c1ccc(S(N)(=O)=O)cc1)c2=O`, the inhibition entry in assay [1] is “inactive”. Further, the values for the IC50 in assay [2] (read-out: IC50), in assay [3] and in assay [4] were 6.1 µM, “Not Active” and “Not Active”, respectively.

Turning to `CC(C)CC1(C)OC(=O)c2c1ccn(CCCN1CCOCC1)c2=O` (racemic), the inhibition result in assay [1] was “inactive”. The inhibition in assay [6] amounted to 31.8%. The IC50 result in assay [3] and in assay [4] was “Not Active” throughout.

Take `CC1(CCc2ccccc2)OC(=O)c2c1ccn(CCCN1CCOCC1)c2=O` (racemic): the inhibition entry in assay [1] was “inactive”. The IC50 was 19.6 µM in assay [2] (read-out: IC50), “Not Active” in assay [3] and “Not Active” in assay [4].

In the case of `CC1(C)OC(=O)c2c1ccn(-c1ccc(S(=O)(=O)Nc3nccs3)cc1)c2=O`, the inhibition result in assay [1] is “inactive”. Moreover, in assay [6], the inhibition worked out at 22%. For the same molecule, the IC50 result in assay [3] and in assay [4] was “Not Active” throughout.

For `O=C1OC2(CCCCC2)c2ccn(CCCN3CCOCC3)c(=O)c21`, the inhibition entry in assay [1] was “inactive”. The figures for the IC50 in assay [2] (read-out: IC50), in assay [3] and in assay [4] were 46.9 µM, “Not Active” and “Not Active”, respectively.

With `CC1(C)OC(=O)c2c1ccn(-c1ccc(S(=O)(=O)NC(=O)c3ccccc3)cc1)c2=O`, the inhibition entry in assay [1] is “inactive”. The IC50 was 4.5 µM in assay [2] (read-out: IC50), “Not Active” in assay [3] and “Not Active” in assay [4].

Consider `CC(C)CC1(C)OC(=O)c2c1ccn(CCc1ccc(Cl)cc1)c2=O` (racemic), for which, in assay [1], the inhibition result was “inactive”. The results for the IC50 in assay [2] (read-out: IC50), in assay [3] and in assay [4] were 12.7 µM, “Not Active” and “Not Active”, respectively.

For the molecule `CCN(CC)CC(O)Cn1ccc2c(c1=O)C(=O)OC21CCOC(C)(C)C1` (configuration not stated), the inhibition result in assay [1] is “inactive”. Moreover, the half-inhibitory concentration (IC50) in assay [2] (read-out: IC50) was 4.1 µM; in assay [3] it was “Not Active”; in assay [4], “Not Active”.

In the case of `O=C1OC2(CCCCC2)c2ccn(CC(O)c3ccccc3)c(=O)c21` (configuration not stated), the inhibition result in assay [1] was “inactive”. The IC50 is 11.9 µM in assay [2] (read-out: IC50), “Not Active” in assay [3] and “Not Active” in assay [4].
